Reference: US12441755B2, “Galactoside inhibitor of galectins” (GALECTO BIOTECH AB, priority 2019, dated 2025)
pKd: −log10 of the molar value.

How the values were obtained:
Gal-1 = Gal-1 (Homo sapiens, UniProt P09382); assay: Fluorescence anisotropy assay, compound as inhibitor of galectin / fluorescein tagged saccharide probe interaction; format: binding
Experimental: (§1) The affinity of Example 1-29 for galectins were determined by a fluorescence anisotropy assay where the compound was used as an inhibitor of the interaction between galectin and a fluorescein tagged saccharide probe as described Sörme, P., Kahl-Knutsson, B., Huflejt, M., Nilsson, U. J., and Leffler H. (2004) Fluorescence polarization as an analytical tool to evaluate galectin-ligand interactions. Anal. Biochem. 334: 36-47, (Sörme et al., 2004) and Monovalent interactions of Galectin-1 By Salomonsson, Emma; Larumbe, Amaia; Tejler, Johan; Tullberg, Erik; Rydberg, Hanna; Sundin, Anders; Khabut, Areej; Frejd, Torbjorn; Lobsanov, Yuri D.; Rini, James M.; et al, From Biochemistry (2010), 49(44), 9518-9532, (Salomonsson et al., 2010).

Gal-3 = Gal-3 (Homo sapiens, UniProt P17931); assay: as above; format: binding
Gal-3, sequence (P17931 whole entry): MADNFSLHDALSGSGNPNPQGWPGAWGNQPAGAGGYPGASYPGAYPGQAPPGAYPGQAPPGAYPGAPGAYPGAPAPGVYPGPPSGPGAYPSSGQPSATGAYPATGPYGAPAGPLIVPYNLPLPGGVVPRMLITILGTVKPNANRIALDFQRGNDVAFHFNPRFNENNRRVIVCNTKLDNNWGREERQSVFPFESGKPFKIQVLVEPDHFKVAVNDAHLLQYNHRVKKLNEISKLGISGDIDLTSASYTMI
Experimental: as §1

Galectin-1 = Galectin-1 (Homo sapiens, UniProt P09382); details: T. Delaine 2016; read-out: affinity to Galectin-1; cited from earlier work
Galectin-1, sequence (P09382 whole entry, species assumed): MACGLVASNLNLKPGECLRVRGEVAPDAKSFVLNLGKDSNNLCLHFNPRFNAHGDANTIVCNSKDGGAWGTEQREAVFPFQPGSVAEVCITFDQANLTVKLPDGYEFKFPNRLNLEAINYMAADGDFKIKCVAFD

galectins = details: cited from earlier work

Gal-1, sequence (P09382 whole entry): as the sequence (P09382 whole entry, species assumed) above

Compound	pKd (Gal-1)	pKd (Gal-3)	pKd (Galectin-1)	affinity relative to lactose, times lower (galectins; compared with lactose)	pKd (galectins; Leffler 2001, Leffler et al. 2004, read-out: Kd, all galectins)
CO[C@@H]1[C@@H](n2cc(-c3nc(Cl)cs3)nn2)[C@@H](O)[C@@H](CO)O[C@H]1c1nnc(C)n1-c1cc(Cl)ccc1C(F)(F)F [Example 17, 1-{3-{3-[4-(4-Chlorothiazol-2-yl)-1H-1,2,3-triazol-1-yl]-3-deoxy-2-O-methyl-β-D-galactopyranosyl}-5-methyl-4H-1,2,4-triazol-4-yl}-5-chloro-2-(trifluoromethyl)benzene]	6.28	7.59	–	–	–
Cc1nc([C@@H]2OC(CO)[C@H](O)C(n3cc(-c4csc(N)n4)nn3)C2O)n(-c2cc(Cl)ccc2C(F)(F)F)n1 (stereo partly shown) [Example 15]	5.82	5.89	–	–	–
Cc1nc([C@@H]2O[C@H](CO)[C@H](O)[C@H](n3cc(-c4cncs4)nn3)[C@H]2O)n(-c2ccc3nc(C)sc3c2)n1 [Example 14, 6-{5-{3-Deoxy-3-[4-(5-thiazolyl)-1H-1,2,3-triazol-1-yl]β-D-galactopyranosyl}-3-methyl-1H-1,2,4-triazol-1-yl}-2-methylbenzothiazole]	4.71	5.64	–	–	–
Cc1nnc([C@@H]2O[C@H](CO)[C@H](O)[C@H](n3cc(-c4nc(Cl)cs4)nn3)[C@H]2O)n1-c1cc(Cl)ccc1C(F)(F)F [Example 9, 1-{3-{3-[4-(4-Chlorothiazol-2-yl)-1H-1,2,3-triazol-1-yl]-3-deoxy-β-D-galactopyranosyl}-5-methyl-4H-1,2,4-triazol-4-yl}-5-chloro-2-(trifluoromethyl)benzene]	6.54	7.39	–	–	–
Cc1nc2ccc(-n3c(C)nnc3[C@@H]3O[C@H](CO)[C@H](O)[C@H](n4cc(-c5nc(Cl)cs5)nn4)[C@H]3O)cc2s1 [Example 26, 6-{3-{3-[4-(4-Chlorothiazol-2-yl)-1H-1,2,3-triazol-1-yl]-3-deoxy-β-D-galactopyranosyl}-5-methyl-4H-1,2,4-triazol-4-yl}-2-methylbenzothiazole]	6.23	7.19	–	–	–
Cc1nnc([C@@H]2O[C@H](CO)[C@H](O)[C@H](n3cc(-c4csc(O)n4)nn3)[C@H]2O)n1-c1cc(Cl)ccc1C(F)(F)F [Example 12, 5-Chloro-1-{3-{3-deoxy-3-[4-(2-hydroxythiazol-4-yl)-1H-1,2,3-triazol-1-yl]β-D-galactopyranosyl}-5-methyl-4H-1,2,4-triazol-4-yl}-2-(trifluoromethyl)benzene]	6.72	6.28	–	–	–
Cc1nc([C@@H]2O[C@H](CO)[C@H](O)[C@H](n3cc(-c4csc(N)n4)nn3)[C@H]2O)n(-c2ccc3nc(C)sc3c2)n1 [Example 24, 6-{5-{3-[4-(2-Aminothiazol-4-yl)-1H-1,2,3-triazol-1-yl]-3-deoxy-β-D-galactopyranosyl}-3-methyl-1H-1,2,4-triazol-1-yl}-2-methylbenzothiazole]	5.49	5.59	–	–	–
OCC1O[C@@H](SC2O[C@H](CO)C(O)C(n3cc(-c4ccsc4)nn3)[C@H]2O)C(O)C(n2cc(-c3ccsc3)nn2)[C@H]1O (stereo partly shown)	–	–	> 8.00	–	–
Cc1nc([C@@H]2OC(CO)[C@H](O)C(n3cc(-c4nc(Cl)cs4)nn3)C2O)n(-c2cc(Cl)ccc2C(F)(F)F)n1 (stereo partly shown) [Example 16]	6.05	7.41	–	–	–
O=C[C@H](O)[C@@H](O)[C@@H](O)[C@H](O)CO [Galactose, D-galactose]	–	–	–	50-100 times lower	–
Cc1nc([C@@H]2O[C@H](CO)[C@H](O)[C@H](n3cc(-c4nc(Cl)cs4)nn3)[C@H]2O)n(-c2ccc3nc(C)sc3c2)n1 [Example 23, 6-{5-{3-[4-(4-Chlorothiazol-2-yl)-1H-1,2,3-triazol-1-yl]-3-deoxy-β-D-galactopyranosyl}-3-methyl-1H-1,2,4-triazol-1-yl}-2-methylbenzothiazole]	5.68	6.85	–	–	–
Cc1nc([C@@H]2O[C@H](CO)[C@H](O)[C@H](n3cc(-c4nccs4)nn3)[C@H]2O)n(-c2ccc3nc(C)sc3c2)n1 [Example 10, 6-{5-{3-Deoxy-3-[4-(2-thiazolyl)-1H-1,2,3-triazol-1-yl]β-D-galactopyranosyl}-3-methyl-1H-1,2,4-triazol-1-yl}-2-methylbenzothiazole]	5.28	5.64	–	–	–
Cc1nc([C@@H]2O[C@H](CO)[C@H](O)[C@H](n3cc(-c4nc(Cl)cs4)nn3)[C@H]2O)n(-c2cc(Cl)cnc2C2CC2)n1 [Example 18, 3-{5-{3-[4-(4-Chlorothiazol-2-yl)-1H-1,2,3-triazol-1-yl]-3-deoxy-β-D-galactopyranosyl}-3-methyl-1H-1,2,4-triazol-1-yl}-5-chloro-2-cyclopropylpyridine]	6.18	6.89	–	–	–
Cc1nc2ccc(-n3cnnc3[C@@H]3O[C@H](CO)[C@H](O)[C@H](n4cc(-c5nccs5)nn4)[C@H]3O)cc2s1 [Example 21, 6-{3-{3-Deoxy-3-[4-(2-thiazolyl)-1H-1,2,3-triazol-1-yl]-β-D-galactopyranosyl}-4H-1,2,4-triazol-4-yl}-2-methylbenzothiazole]	5.52	5.92	–	–	–
CO[C@@H]1[C@@H](n2cc(-c3nc(Cl)cs3)nn2)[C@@H](O)[C@@H](CO)O[C@H]1c1nnc(C)n1-c1ccc2nc(C)sc2c1 [Example 25, 6-{3-{3-[4-(4-Chlorothiazol-2-yl)-1H-1,2,3-triazol-1-yl]-3-deoxy-2-O-methyl-β-D-galactopyranosyl}-5-methyl-4H-1,2,4-triazol-4-yl}-2-methylbenzothiazole]	6.47	7.15	–	–	–
Cc1nc2ccc(-n3cnnc3[C@@H]3O[C@H](CO)[C@H](O)[C@H](n4cc(-c5csc(O)n5)nn4)[C@H]3O)cc2s1 [Example 8, 6-{3-{3-Deoxy-3-[4-(2-hydroxythiazol-4-yl)-1H-1,2,3-triazol-1-yl]-β-D-galactopyranosyl}-4H-1,2,4-triazol-4-yl}-2-methylbenzothiazole]	6.49	5.72	–	–	–
Cc1nc2ccc(-n3cnnc3[C@@H]3O[C@H](CO)[C@H](O)[C@H](n4cc(-c5nc(Cl)cs5)nn4)[C@H]3O)cc2s1 [Example 1, 6-{3-{3-[4-(4-Chlorothiazol-2-yl)-1H-1,2,3-triazol-1-yl]-3-deoxy-β-D-galactopyranosyl}-4H-1,2,4-triazol-4-yl}-2-methylbenzothiazole]	6.12	6.82	–	–	–
Cc1nc2ccc(-n3cnnc3[C@@H]3O[C@H](CO)[C@H](O)[C@H](n4cc(-c5csc(N)n5)nn4)[C@H]3O)cc2s1 [Example 6, 6-{3-{3-[4-(2-Aminothiazol-4-yl)-1H-1,2,3-triazol-1-yl]-3-deoxy-β-D-galactopyranosyl}-4H-1,2,4-triazol-4-yl}-2-methylbenzothiazole]	5.80	5.72	–	–	–
Cc1csc(-c2cn([C@H]3[C@@H](O)[C@@H](CO)O[C@@H](c4nncn4-c4ccc5nc(C)sc5c4)[C@@H]3O)nn2)n1 [Example 22, 6-{3-{3-Deoxy-3-[4-(4-methylthiazol-2-yl)-1H-1,2,3-triazol-1-yl]-β-D-galactopyranosyl}-4H-1,2,4-triazol-4-yl}-2-methylbenzothiazole]	5.62	5.74	–	–	–
Cc1nnc([C@@H]2O[C@H](CO)[C@H](O)[C@H](n3cc(-c4nccs4)nn3)[C@H]2O)n1-c1cc(Cl)ccc1C(F)(F)F [Example 20, 5-Chloro-1-{3-{3-deoxy-3-[4-(2-thiazolyl)-1H-1,2,3-triazol-1-yl]β-D-galactopyranosyl}-5-methyl-4H-1,2,4-triazol-4-yl}-2-(trifluoromethyl)benzene]	6.16	6.82	–	–	–
OC[C@H]1O[C@@H](O[C@H]2[C@H](O)[C@@H](O)C(O)O[C@@H]2CO)[C@H](O)[C@@H](O)[C@H]1O (stereo partly shown) [lactose]	–	–	–	–	3.00 to 4.00
Cc1nc2ccc(-n3nccc3[C@@H]3OC(CO)[C@H](O)C(n4cc(-c5nc(Cl)cs5)nn4)C3O)cc2s1 (stereo partly shown) [Example 29]	7.48	6.22	–	–	–
Cc1nnc([C@@H]2O[C@H](CO)[C@H](O)[C@H](n3cc(-c4csc(N)n4)nn3)[C@H]2O)n1-c1cc(Cl)ccc1C(F)(F)F [Example 19, 1-{3-{3-[4-(2-Aminothiazol-4-yl)-1H-1,2,3-triazol-1-yl]-3-deoxy-β-D-galactopyranosyl}-5-methyl-4H-1,2,4-triazol-4-yl}-5-chloro-2-(trifluoromethyl)benzene]	6.14	6.09	–	–	–
Cc1csc(-c2cn([C@H]3[C@@H](O)[C@@H](CO)O[C@@H](c4nnc(C)n4-c4cc(Cl)ccc4C(F)(F)F)[C@@H]3O)nn2)n1 [Example 11, 5-Chloro-1-{3-{3-deoxy-3-[4-(4-methylthiazol-2-yl)-1H-1,2,3-triazol-1-yl]-β-D-galactopyranosyl}-5-methyl-4H-1,2,4-triazol-4-yl}-2-(trifluoromethyl)benzene]	5.68	6.15	–	–	–
Cc1nnc([C@@H]2OC(CO)[C@H](O)C(n3cc(-c4nc(Cl)cs4)nn3)C2O)n1-c1ccc2ncn(C)c2c1 (stereo partly drawn) [Example 27, 5-{3-{3-[4-(4-Chlorothiazol-2-yl)-1H-1,2,3-triazol-1-yl]-3-deoxy-β-D-galactopyranosyl}-5-methyl-4H-1,2,4-triazol-4-yl}-N-3-methylbenzimidazole]	5.59	7.44	–	–	–
Cc1nc([C@@H]2O[C@H](CO)[C@H](O)[C@H](n3cc(-c4csc(C)n4)nn3)[C@H]2O)n(-c2ccc3nc(C)sc3c2)n1 [Example 13, 6-{5-{3-Deoxy-3-[4-(2-methylthiazol-4-yl)-1H-1,2,3-triazol-1-yl]β-D-galactopyranosyl}-3-methyl-1H-1,2,4-triazol-1-yl}-2-methylbenzothiazole]	5.05	5.74	–	–	–
